Paper PMC10778824, “New Chalcone Derivatives Containing 2,4-Dichlorobenzenesulfonamide Moiety with Anticancer and Antioxidant Properties” (International Journal of Molecular Sciences, 2023)
“And” between values parts separate entries of the source, which are not always exact repeats. Identical values can stand only once.

Experiments:
[1] = ABTS radical scavenging assay; conditions: concentration of 800 µg/mL
Experimental: The ABTS radical scavenging assay of chalcone derivatives was performed with ascorbic acid as a standard. Different concentrations of samples, dissolved in DMSO, were mixed with 170 μL of ABTS solution (2 mM ABTS diammonium salt and 3.5 mM potassium persulfate), and water was added to a final volume of 300 μL. ABTS solution with DMSO was used as a control. […] ABTS inhibition was calculated according to the following Formula (3):ABTS Inhibition (%) = [(Acontrol − Asample)/Acontrol] × 100%(3)

[2] = tested on: gastric adenocarcinoma AGS; experiment: MTT assay, AGS cells; format: cell-based, human
Experimental: The human gastric adenocarcinoma AGS, cervical cancer HeLa, and acute promyelocytic leukemia HL-60 cells were obtained from the American Type Culture Collection (ATCC, Manassas, VA, USA). Human neonatal fibroblasts were obtained from LGC Standards (Luckenwalde, Germany). The HeLa and AGS lines were cultured in Dulbecco’s modified Eagle’s medium (DMEM) and DMEM/F12 medium, respectively. The HL-60 line was maintained in RPMI-1640 medium. Fibroblasts were cultured in Fibroblast Growth Medium with Supplement Mix. All the media were supplemented with 100 units/mL of penicillin, 100 µg/mL of streptomycin, and 10% (v/v) fetal bovine serum (FBS) (Merck Millipore, Burlington, MA, USA). The cells were incubated at 37 °C and 5% CO2.
To estimate the cytotoxic effect of the five compounds (4–8), MTT (3-(4,5-dimethylthiazol-2-yl)-2,5-diphenyltetrazolium bromide) assay was used. Oxaliplatin was used as a positive control in this test. All the cell lines were seeded in 96-well plates at a density of 5 × 10^3 cells/well and treated for 24 h with the compounds at concentrations of 0.5–40 µg/mL. Oxaliplatin was tested in the range of 20–400 µg/mL (50–1000 µM). After treatment, the cells were incubated with MTT (0.5 mg/mL; Merck Millipore, Burlington, MA, USA) for 3 h. Then, DMSO was used to dissolve formazan crystals, and the absorbance of the formazan solution was measured with a plate reader (Epoch, BioTek Instruments, Santa Clara, CA, USA). All the results (±standard deviation (SD)) were obtained from six repetitions in at least two independent experiments. The data are expressed as IC50 values (µg/mL).

neutrophil elastase = molecular target: T1, neutrophil elastase (Sus scrofa, UniProt P00772); experiment: Elastase assay (SANA substrate); format: biochemical, porcine; conditions: Tris-HCl pH 8.0, SANA substrate; read-out: neutrophil elastase inhibition IC50 (converted)
T1 construct: purchased Sigma Chemical Co. (St. Louis, MO, USA)
T1 sequence (P00772 27-266): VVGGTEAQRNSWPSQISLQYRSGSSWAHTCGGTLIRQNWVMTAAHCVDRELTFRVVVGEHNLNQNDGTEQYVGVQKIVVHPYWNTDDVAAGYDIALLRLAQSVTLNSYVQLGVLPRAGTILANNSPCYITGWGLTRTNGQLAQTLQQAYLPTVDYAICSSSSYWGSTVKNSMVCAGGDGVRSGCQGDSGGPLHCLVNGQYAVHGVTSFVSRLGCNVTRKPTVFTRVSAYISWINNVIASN
Experimental: The elastase analysis was performed according to the spectrophotometric method with oleanolic acid as a reference. The reaction mixture (Tris-HCl buffer (pH 8.0), 1.0 μg/mL porcine pancreatic elastase, and different concentrations of chalcone derivatives was preincubated at room temperature for 15 min. Afterwards, the addition of the substrate—SANA—started the reaction. Product formation changes were analyzed at λ = 410 nm for 20 min every 20 s (Epoch, BioTek Instruments, Santa Clara, CA, USA). The control was composed of Tris-HCl buffer (pH 8.0), an appropriate concentration of the chalcone derivative, and SANA.

caspase-9 = experiment: Caspase-Glo 9 activity assay in AGS cells; format: cell-based, human; conditions: 24 h, relative to DMSO control
Experimental: (§1) The AGS cells were seeded in a 96-well plate (5 × 10^3 cells/well) and treated with compound 5 at concentrations of 1, 5, 7, and 10 µg/mL for 24 h; oxaliplatin at the concentration of 20 µg/mL; and DMSO (1%, v/v). The cells were then treated with reagents from Caspase-Glo 8 Assay or Caspase-Glo 9 Assay (Promega, Madison, WI, USA) and measured with the luminometer Glomax Multi + Detection System (Promega, Madison, WI, USA). The experiments were performed in two independent repeats in three repetitions.

[3] = Annexin V and dead cell assay (flow cytometry); format: cell-based, human; conditions: human, AGS cells, 10 µg/mL, read-out: live cells (viability)
Experimental: (§2) To estimate the viability and induction of apoptosis/necrosis in the population of AGS cells treated with compound 5, the Muse Annexin V and a Dead Cell Assay Kit (Merck Millipore, Burlington, MA, USA) were used. The cells were seeded in 12-well plates (1 × 10^5 cells/well) and incubated with the compound at concentrations of 1, 5, and 10 µg/mL. […] After 24 h, the cells were stained with the kit reagents, namely, annexin V and 7-AAD (7-aminoactinomycin), and analyzed by flow cytometry (Muse Cell Analyzer, Merck Millipore, Burlington, MA, USA). The experiments were performed in three independent repeats.

AGS cells [4] = experiment: Annexin V and dead cell assay (flow cytometry); format: cell-based, human; conditions: 24 h
Experimental: as §2

AGS cells [5] = experiment: Cell cycle analysis (propidium iodide); format: cell-based, human; conditions: 48 h
Experimental: The AGS cells were seeded in a 6-well plate (5 × 10^5 cells/well) and incubated with compound 5 at concentrations of 1, 5, and 10 µg/mL for 48 h; oxaliplatin at the concentration of 40 µg/mL; and DMSO (0.2%, v/v). After treatment, the cells were stained with propidium iodide from the Muse Cell Cycle Assay Kit (Merck Millipore, Burlington, MA, USA), and the amount of cells in each phase of the cell cycle was determined using the Muse Cell Analyzer (Merck Millipore, Burlington, MA, USA). The experiment was independently repeated three times.

[6] = DPPH radical scavenging assay; conditions: concentration of 800 µg/mL
Experimental: The DPPH radical scavenging assay of samples (ligands or complexes) was performed with ascorbic acid as a standard. Different concentrations of chalcone derivatives, dissolved in DMSO, were mixed with the same amount of 0.06 mM DPPH methanolic solution and incubated at room temperature in the dark for 30 min. The absorbance was analyzed at λ = 517 nm using a 96-well microplate reader (Epoch, BioTek System, Winooski, VT, USA). The control was composed of DPPH and DMSO. DPPH inhibition was calculated according to the following Formula (2):DPPH Inhibition (%) = [(Acontrol − Asample)/Acontrol] × 100%(2)

caspase-8 = experiment: Caspase-Glo 8 activity assay in AGS cells; format: cell-based, human; conditions: 24 h, relative to DMSO control
Experimental: as §1

Cc1cc(S(=O)(=O)Nc2ccc(C(=O)/C=C/c3ccc(Br)cc3)cc2)c(Cl)cc1Cl [Compound 5, (E)-N-{4-[3-(4-Bromophenyl)acryloyl]phenyl}-2,4-Dichloro-5-Methylbenzenesulfonamide]
% of ABTS radical inhibition [1]: 16.01 ± 0.69%
IC50 ([2]; Homo sapiens, AGS, 24 h, MTT, 24 h treatment): < 1 µg/mL
selectivity index AGS ([2]; SI = IC50 noncancer cells/IC50 cancer cells, in relation to human neonatal fibroblasts): 28.75
IC50 (neutrophil elastase): 121 µM
caspase-9 relative activity (caspase-9; 1 µg/mL): 0.85 ± 0.03
caspase-9 relative activity (caspase-9; 5 µg/mL): 4.54 ± 0.20
caspase-9 relative activity (caspase-9; 7 µg/mL): 4.50 ± 0.14
caspase-9 relative activity (caspase-9; 10 µg/mL): 3.81 ± 0.32
viability at 24 h, 10 µg/mL [3]: 29%
dead cells (AGS cells [4]; 5 µg/mL): 18.28% ± 1.80%
late apoptotic cells (AGS cells [4]; 5 µg/mL): 33.92% ± 3.05%
dead cells (AGS cells [4]; 10 µg/mL): 22.16% ± 2.04%
late apoptotic cells (AGS cells [4]; 10 µg/mL): 49.90% ± 2.07%
live cells (viability) (AGS cells [4]; 10 µg/mL): 26.26% ± 4.03%
cells in G0/G1 phase (AGS cells [5]; 1 µg/mL): 41.4%
cells in G2/M phase (AGS cells [5]; 1 µg/mL): 43.0%
cells in S phase (AGS cells [5]; 1 µg/mL): 14.6%
cells in G1 (G0/G1) phase (AGS cells [5]; 10 µg/mL): 34.9% and 34.47% ± 2.87%
cells in G2/M phase (AGS cells [5]; 10 µg/mL): 23.1% and 21.50% ± 1.50%
cells in S phase (AGS cells [5]; 10 µg/mL): 15.5% and 13.78% ± 1.70%
cells in subG0 phase (AGS cells [5]; 10 µg/mL): 27.1% ± 0.87%
% of DPPH radical inhibition [6]: 30.18 ± 0.23%
caspase-8 relative activity (caspase-8; 1 µg/mL): 1.16 ± 0.15
caspase-8 relative activity (caspase-8; 5 µg/mL): 3.53 ± 0.33
caspase-8 relative activity (caspase-8; 7 µg/mL): 3.39 ± 0.28
caspase-8 relative activity (caspase-8; 10 µg/mL): 2.99 ± 0.20
